Test results taken from US20050176938A1, “Anhydrate/hydrate of an erythromycin derivative and processes for preparing said anhydrate/hydrate” (Chugai Seiyaku Kabushiki Kaisha, priority 2002, published 2005).
Where a name gives a salt, the structure may show the parent alone.

What was measured:
Type in all cases: physicochemical
[1] = Residual solvent level (ethyl acetate) by gas chromatography; settings: for Residual solvent level: anhydrate before, X-hydrate after conditioning
Source text: The residual solvent level described above can be determined by a known method such as gas chromatography. Gas chromatography is described in detail at B98-B114 of the Practical Guide of the 14th revision of Pharmacopoeia of Japan (published by Hirokawa Publishing Co., 2001) or the like. The measurement error by gas chromatography is normally within about ±1%.
The following examples further illustrate the present invention without, however, limiting the invention thereto. In the following examples, NMR spectra were measured by using a nuclear magnetic resonance spectrometer JNM-ECP500SS (made by JEOL) and only characteristic peaks were shown. Powder X-ray diffraction spectra were measured by using a powder X-ray diffractometer RINT-1100 (made by Rigaku). Residual solvent levels were measured by using a gas chromatograph GC-17A (made by Shimadzu) within an error of about ±1%. The staring material Dihydroxy compound described below (compound 1) can be prepared according to the process described in JPA 1997-100241 or modifications thereof.
Crystal form D anhydrate prepared according to Example 2 and Crystal form D X-hydrate prepared by conditioning said anhydrate according to Example 3 (1) or (2) using an air-circulating dryer (made by Nippon Kansoki), a vibro-fluidized bed dryer VUA-10DJ (made by Chuo Kakohki) or a fluidized bed granulator New Marumerizer NQ-160 (made by Fuji Paudal) were assayed for their residual solvent levels (ethyl acetate) by gas chromatography. Before and after conditioning, the crystal form was confirmed by powder X-ray diffraction spectra to have been transferred from Crystal form D anhydrate into Crystal form D X-hydrate.

[2] = Accelerated testing with oxygen at 40° C. for 2 weeks and 1 month, degradants by HPLC; settings: for Percent Degradants: Oxygen replacement, X-hydrate 75% RH
Procedure: (§1) The resulting samples were tested for purity by HPLC, and the peak area of each sample was measured by automatic analysis to determine the product percentage by the area percentage method according to the equation below. The HPLC column used was YMC ODS AM303 (4.6×250 mm) with a mobile phase consisting of a solution of acetonitrile: water=1:1 containing PICB-8 (Low UV) reagent, and a UV spectrometer (260 nm) and a PDA (200-400 nm) were used as detectors on 25 μL of each sample solution prepared by dissolving about 20 mg of each sample in a solution of acetonitrile:water=1:1 to a volume of exactly 25 mL.
(§2) Degradants percentage (%)=(degradants peak area×100)/(total of peak areas excluding peaks derived from fumaric acid and control solution)
In the same manner as described in (1) above, Crystal form D was stored and dried under reduced pressure in a desiccator containing silica gel. After drying under reduced pressure, the air in the desiccator was replaced with high-purity oxygen conditioned at a relative humidity of 0% RH to perform accelerated testing of Crystal form D anhydrate at 40° C. for 2 weeks and for 1 month. Similarly, Crystal form D was stored in a desiccator conditioned at a relative humidity of about 75% RH by an aqueous saturated sodium chloride solution and the air in the desiccator was replaced with high-purity oxygen conditioned at a relative humidity of 75% RH to perform accelerated testing of Crystal form D X-hydrate at 40° C. for 2 weeks and for 1 month. The resulting samples were analyzed as described in (1) above. Before and after accelerated testing, the crystal form was confirmed to be kept Crystal form D anhydrate or Crystal form D X-hydrate under each conditions by powder X-ray diffraction spectra.

[3] = Accelerated testing (stability) of Crystal form D anhydrate and X-hydrate at 40° C. and 60° C. for 1 month, degradants by HPLC; settings: for Percent Degradants: X-hydrate at about 75% RH
Procedure: Three lots of Crystal form D anhydrate prepared according to the procedure described in Example 2 were stored and dried under reduced pressure in a desiccator containing silica gel. After drying under reduced pressure, the desiccator was charged with air conditioned at a relative humidity of 0% RH to perform accelerated testing of Crystal form D anhydrate at 40° C. for 1 month and at 60° C. for 1 month. Similarly, Crystal form D was stored in a desiccator conditioned at a relative humidity of about 75% RH by an aqueous saturated sodium chloride solution to perform accelerated testing of Crystal form D X-hydrate at 40° C. for 1 month and at 60° C. for 1 month. Before and after accelerated testing, the crystal form was confirmed to be Crystal form D anhydrate or Crystal form D X-hydrate by powder X-ray diffraction spectra.
as §1, §2

CC[C@H]1OC(=O)[C@H](C)[C@@H](O[C@H]2C[C@@](C)(OC)[C@@H](O)[C@H](C)O2)[C@H](C)[C@@H](O[C@@H]2O[C@H](C)C[C@H](N(C)C(C)C)[C@H]2O)[C@@]2(C)CC(C)=C(O2)[C@H](C)C(=O)[C@]1(C)OC [Crystal form D X-hydrate, [2S, 4R, 5R, 8R, 9S, 10S, 11R, 12R]-9-[(2,6-dideoxy-3-C-methyl-3-O-methyl-α-L-ribo-hexopyranosyl)oxy]-5-ethyl-4-methoxy-2,4,8,10,12,14-hexamethyl-11-[[3,4,6-trideoxy-3-(isopropylmethylamino)-β-D-xylo-hexopyranosyl]oxy]-6,15-dioxabicyclo[10.2.1]pentadec-14 (1)-ene-3,7-dione (E)-2-butenedioic acid salt (2:1)]
Residual solvent level ([1]; Lot A, Air-circulating dryer, 20-21° C., 58-63% RH (air) 2 hrs, listed as X-hydrate): 636 ppm | Residual solvent level ([1]; Lot B, Vibro-fluidized bed dryer, 22-28° C., 75 ± 15% RH (nitrogen gas) 4 hrs, listed as X-hydrate): 446 ppm | Residual solvent level ([1]; Lot C, Fluidized bed granulator, 24-29° C., 75 ± 10% RH (air) 4 hrs, listed as X-hydrate): 424 ppm | Residual solvent level ([1]; Lot D, Vibro-fluidized bed dryer, 19-26° C., 70-71% RH (nitrogen gas) 4 hrs, listed as X-hydrate): 424 ppm | Residual solvent level ([1]; Lot E, Air-circulating dryer, 19-28° C., 41-71% RH (air) 72 hrs, listed as X-hydrate): 251 ppm | residual solvent level compared between the crystal forms ([1]; all the lots): lower | Percent Degradants ([2]; 1 month, Lot 1, anhydrate 0% RH, listed as X-hydrate): 0.66% | Percent Degradants ([2]; 1 month, Lot 2, anhydrate 0% RH, listed as X-hydrate): 0.72% | Percent Degradants ([2]; 1 month, Lot 3, anhydrate 0% RH, listed as X-hydrate): 0.93% | Percent Degradants ([2]; 2 weeks, Lot 1, anhydrate 0% RH, listed as X-hydrate): 0.17% | Percent Degradants ([2]; 2 weeks, Lot 2, anhydrate 0% RH, listed as X-hydrate): 0.05% | Percent Degradants ([2]; 2 weeks, Lot 3, anhydrate 0% RH, listed as X-hydrate): 0.18% | stability compared between the crystal forms ([2]; oxygen replacement, 2 weeks and 1 month): more stable than Crystal form D anhydrate | stability compared between the crystal forms ([3]; 40° C. and 60° C., all the lots): more stable than Crystal form D anhydrate | Percent Degradants ([3]; 40° C., Lot 1, anhydrate at 0% RH, listed as X-hydrate): 0.17% | Percent Degradants ([3]; 40° C., Lot 2, anhydrate at 0% RH, listed as X-hydrate): 0.42% | Percent Degradants ([3]; 40° C., Lot 3, anhydrate at 0% RH, listed as X-hydrate): 0.22% | Percent Degradants ([3]; 60° C., Lot 1, anhydrate at 0% RH, listed as X-hydrate): 0.90% | Percent Degradants ([3]; 60° C., Lot 2, anhydrate at 0% RH, listed as X-hydrate): 0.63% | Percent Degradants ([3]; 60° C., Lot 3, anhydrate at 0% RH, listed as X-hydrate): 1.53%

CC[C@H]1OC(=O)[C@H](C)[C@@H](O[C@H]2C[C@@](C)(OC)[C@@H](O)[C@H](C)O2)[C@H](C)[C@@H](O[C@@H]2O[C@H](C)C[C@H](N(C)C(C)C)[C@H]2O)[C@@]2(C)CC(C)=C(O2)[C@H](C)C(=O)[C@]1(C)OC [Crystal form D anhydrate, [2S, 4R, 5R, 8R, 9S, 10S, 11R, 12R]-9-[(2,6-dideoxy-3-C-methyl-3-O-methyl-α-L-ribo-hexopyranosyl)oxy]-5-ethyl-4-methoxy-2,4,8,10,12,14-hexamethyl-11-[[3,4,6-trideoxy-3-(isopropylmethylamino)-β-D-xylo-hexopyranosyl]oxy]-6,15-dioxabicyclo[10.2.1]pentadec-14(1)-ene-3,7-dione (E)-2-butenedioic acid salt (2:1)]
Residual solvent level ([1]; Lot A, Air-circulating dryer, 20-21° C., 58-63% RH (air) 2 hrs, listed as Anhydrate): 697 ppm | Residual solvent level ([1]; Lot B, Vibro-fluidized bed dryer, 22-28° C., 75 ± 15% RH (nitrogen gas) 4 hrs, listed as Anhydrate): 616 ppm | Residual solvent level ([1]; Lot C, Fluidized bed granulator, 24-29° C., 75 ± 10% RH (air) 4 hrs, listed as Anhydrate): 750 ppm | Residual solvent level ([1]; Lot D, Vibro-fluidized bed dryer, 19-26° C., 70-71% RH (nitrogen gas) 4 hrs, listed as Anhydrate): 875 ppm | Residual solvent level ([1]; Lot E, Air-circulating dryer, 19-28° C., 41-71% RH (air) 72 hrs, listed as Anhydrate): 663 ppm | Percent Degradants ([2]; 1 month, Lot 1, anhydrate 0% RH, listed as Anhydrate): 3.12% | Percent Degradants ([2]; 1 month, Lot 2, anhydrate 0% RH, listed as Anhydrate): 3.39% | Percent Degradants ([2]; 1 month, Lot 3, anhydrate 0% RH, listed as Anhydrate): 3.96% | Percent Degradants ([2]; 2 weeks, Lot 1, anhydrate 0% RH, listed as Anhydrate): 1.01% | Percent Degradants ([2]; 2 weeks, Lot 2, anhydrate 0% RH, listed as Anhydrate): 1.00% | Percent Degradants ([2]; 2 weeks, Lot 3, anhydrate 0% RH, listed as Anhydrate): 1.32% | Percent Degradants ([3]; 40° C., Lot 1, anhydrate at 0% RH, listed as Anhydrate): 1.01% | Percent Degradants ([3]; 40° C., Lot 2, anhydrate at 0% RH, listed as Anhydrate): 1.38% | Percent Degradants ([3]; 40° C., Lot 3, anhydrate at 0% RH, listed as Anhydrate): 1.41% | Percent Degradants ([3]; 60° C., Lot 1, anhydrate at 0% RH, listed as Anhydrate): 2.66% | Percent Degradants ([3]; 60° C., Lot 2, anhydrate at 0% RH, listed as Anhydrate): 2.52% | Percent Degradants ([3]; 60° C., Lot 3, anhydrate at 0% RH, listed as Anhydrate): 3.05%
